Experimental data published in ChEMBL document CHEMBL3046574, “Synthesis and Insecticidal Activity of 2-Alkoxy-4H-l,3,2-benzoxazaphosphorin-2-thiones” (1992).
Values after ≈ are worked out from the molar mass of the structure shown.

Columns and labels:
Assay type in all cases: functional
[1] = system: Spodoptera litura; assay: Insecticidal activity against Spodoptera litura assessed as mortality at 1000 ppm by leaf dipping method; details: foliar
[2] = system: Laodelphax striatellus; assay: Insecticidal activity against Laodelphax striatella (small brown planthopper) assessed as mortality at 500 ppm by root soaking method
[3] = system: Laodelphax striatellus; assay: Insecticidal activity against Laodelphax striatella (small brown planthopper) assessed as mortality at 50 ppm by root soaking method
[4] = system: Spodoptera litura; assay: Insecticidal activity against Spodoptera litura LC50 assessed as mortality by leaf dipping method; details: foliar

Structure (SMILES)	mortality at 1000 ppm [1] [%]	mortality at 500 ppm [2] [%]	mortality at 50 ppm [3] [%]	LC50 [4] [µg/mL]
CCOP1(=S)Oc2ccccc2CN1CC (stereo not given)	93	97	–	–
CCCN1Cc2ccccc2OP1(=S)OCC (stereo not given)	73	40	–	–
CCOP1(=S)Oc2ccccc2CN1C(C)C (stereo not given)	90	43	–	–
C=CCN1Cc2ccccc2OP1(=S)OC (stereo not given)	93	97	–	–
C=CCN1Cc2ccccc2OP1(=S)OCC (stereo not given)	50	50	–	–
CCOP1(=S)Oc2ccc(Cl)cc2CN1CC (stereo not given)	20	10	–	–
COP1(=S)Oc2ccc(Cl)cc2CN1C(C)C (stereo not given)	40	73	–	–
CCOP1(=S)Oc2ccc(Cl)cc2CN1C(C)C (stereo not given)	33	87	–	–
CCCOP1(=S)Oc2ccc(Cl)cc2CN1C(C)C (stereo not given)	0	0	–	–
CCCN1Cc2cc(Cl)ccc2OP1(=S)OCC (stereo not given)	0	0	–	–
C=CCN1Cc2cc(Cl)ccc2OP1(=S)OCC (stereo not given)	0	0	–	–
C=CCN1Cc2cc(Cl)ccc2OP1(=S)OCCC (stereo not given)	13	0	–	–
CCOP1(=S)Oc2ccc(Cl)cc2CN1CC(C)C (stereo not given)	30	0	–	–
CCCOP1(=S)Oc2ccc(Cl)cc2CN1CC(C)C (stereo not given)	0	0	–	–
CCOP1(=S)Oc2cc(Cl)c(Cl)cc2CN1CC(C)C (stereo not given)	57	0	–	–
CCCOP1(=S)Oc2cc(Cl)c(Cl)cc2CN1CC(C)C (stereo not given)	17	0	–	–
CCOP1(=S)Oc2ccc(Br)cc2CN1CC (stereo not given)	27	0	–	–

Structure (SMILES)	mortality at 1000 ppm [1] [%]	mortality at 500 ppm [2] [%]	mortality at 50 ppm [3] [%]	LC50 [4] [µg/mL]
COP1(=S)Oc2ccc(Br)cc2CN1C(C)C (stereo not given)	60	100	85	–
CCOP1(=S)Oc2ccc(Br)cc2CN1C(C)C (stereo not given)	63	100	87	–
C=CCN1Cc2cc(Br)ccc2OP1(=S)OC (stereo not given)	18	0	–	–
C=CCN1Cc2cc(Br)ccc2OP1(=S)OCC (stereo not given)	20	0	–	–
C=CCN1Cc2cc(Br)ccc2OP1(=S)OCCC (stereo not given)	0	0	–	–
COP1(=S)Oc2ccc(Br)cc2CN1CC(C)C (stereo not given)	0	0	–	–
CCOP1(=S)Oc2ccc(Br)cc2CN1CC(C)C (stereo not given)	0	0	–	–
CCCOP1(=S)Oc2ccc(Br)cc2CN1CC(C)C (stereo not given)	0	0	–	–
CCOP1(=S)Oc2cc(Br)c(Br)cc2CN1C(C)C (stereo not given)	0	0	–	–
CCN1Cc2cc([N+](=O)[O-])ccc2OP1(=S)OC (stereo not given)	0	0	–	–
CCOP1(=S)Oc2ccc([N+](=O)[O-])cc2CN1CC (stereo not given)	0	0	–	–
CCCOP1(=S)Oc2ccc([N+](=O)[O-])cc2CN1CC (stereo not given)	0	0	–	–
CCOP1(=S)Oc2ccc([N+](=O)[O-])cc2CN1C(C)C (stereo not given)	0	0	–	–
CCN1Cc2ccccc2OP1(=S)OC (stereo not given)	97	83	–	–
CCOC(=O)CC(SP(=S)(OC)OC)C(=O)OCC (stereo not given) [MALATHION]	100	100	100	8.3 (≈ 25.1 µM)
CNC(=O)Oc1ccccc1OC(C)C [PROPOXUR]	–	100	16.1	–
